Laboratory results from US20240325394A1, “SALT AND CRYSTAL FORM OF NITROGEN-CONTAINING HETEROCYCLIC DERIVATIVE, PREPARATION METHOD THEREFOR AND APPLICATION THEREOF” (SHANGHAI HANSOH BIOMEDICAL CO., LTD., priority 2020, published 2024).

Assays:
[1] = tested on: plasma protein; test: Plasma protein binding rate test, dog plasma; type: in vitro ADME; settings: 5 μM, 37° C., 6 hours
Experimental: The embodiment compound was prepared into a 1 mM solution A with DMSO.
Solution A was added to the plasma solution and prepared into a 5 μM solution B.
• 1) 200 μL of solution B was added into the membrane. • 2) 350 μL of PBS was added to the outside of the membrane. • 3) Incubating in a 37° C. water bath for 6 hours. • 4) The samples were processed for dilution and detected by mass spectrometry.
• instrument: Shimadzu LC-20 AD; • chromatographic column: phenomenex Gemiu® C18 (50*4.6 mm, 5 UM particle size); • mobile phase: A: Acetonitrile, B: 0.1% formic acid solution 0-0.5 min: 5% A→90% A, 2.0-2.1 min: 90% A→5% A; flow rate: 0.8 mL/min; running time: 5.0 min; injection volume: 5 μL.
• instrument: API4000 Liquid Chromatography-Mass Spectrometry, AB, USA; • the ion source was electrospray ionization source (ESI); • the temperature of dry gas (N2) was 500° C.; • electrospray voltage was 5500V; • the detection method was positive ion detection; • the scanning mode was selective response monitoring (MRM); the scanning time was 0.1 s.

[2] = tested on: phosphorylated ERK in Mia PaCa-2 cells; test: Inhibition of phosphorylated ERK in Mia PaCa-2 cells (LANCE Ultra); type: cell-based, human; settings: 2 hours treatment; read-out: Mia PaCa-2 pERK IC50
Experimental: When Mia PaCa-2 cells were cultured to the appropriate fusion level, Mia PaCa-2 cells were collected, and the cell density was adjusted to 1×10^6/mL using complete culture medium, the cell suspension was spread on a 96-well plate, 50 μL per well, and placed adherent to the wall in a 37° C., 5% CO2 incubator overnight, compound solutions with different concentrations were prepared using DMSO and complete culture medium, a solvent control was set, the compound solution was added to a 96-well plate, 25 μL per well, and placed in a 37° C., 5% CO2 incubator for 2 hours of continuous culture, the supernatant was discarded from the cell culture plate, 50 μL of lysis solution was added to each well, and lysing was performed for 30 minutes by shaking at room temperature, then the mixture was centrifuged at 1000 rpm for 1 minute, 15 μL of supernatant was transferred to 384 well plate, 5 μL of detection mixture (Eu-labeled anti-ERK1/2 (T202-Y204) antibody with final concentration of 0.5 nM and ULight labeled anti-ERK1/2 antibody with final concentration of 5 nM) was added to each well, centrifuged at 1000 rpm for 1 minute and mixed uniformly, the reaction was carried out overnight at room temperature, the plate was read with BioTek Synergy H1, and the signal values was detected at 620 nm and 665 nm emission wavelengths by time-resolved fluorescence program. […]

[3] = tested on: human pancreatic cancer cell MiaPaca 2 xenograft (CDX); test: Tumor inhibition on MiaPaca 2 transplanted tumor model; type: in vivo, BALB/c nude mice; settings: oral 6 mg/kg QD×3w
Experimental: MiaPaca 2 cells were removed from the cell bank, revived and added to DMEM medium (containing 10% FBS, 1% Glu, 1% P/S) and incubated in a CO2 incubator (incubator temperature was 37° C., CO2 concentration was 5%). After the cells were spread to 80-90% of the bottom of the culture flask, the cells were continued to be cultured in the CO2 incubator. The process was repeated until the number of cells met the in vivo pharmacological inoculation requirement, and the cells in logarithmic growth period were collected and counted with an automatic cell counter, resuspended with PBS and Matrigel (volume ratio 1:1) according to the count results, made into a cell suspension (the density was 8×10^7/mL), and placed in an ice box for use.
BALB/c nude mice, female, 6-8 weeks old, weighing about 18-22 g. The mice were kept in an environment free of special pathogens and in a single ventilated cage with 5 mice in each cage. […] Nude mice were labeled with disposable universal ear tags for mice and rats before the start of the experiment, and the skin of the inoculation site was disinfected with 75% medical alcohol before inoculation, 0.1 mL (containing 8*10^6 cells) of MiaPaca 2 tumor cells were inoculated subcutaneously on the right back of each mouse. When the tumor volume reached 100-200 mm^3, the group administration was started.
The tumor volume (mm^3) was measured with vernier caliper twice a week, the calculation formula was V=[…], wherein D and d were the long and short diameter of the tumor, respectively. The anti-tumor efficacy was determined by dividing the average tumor increased volume of the compound-treated animals by the average tumor increased volume of the untreated animals. The formula of tumor inhibition rate is: TGI (%)=1−[(Vt−V0) administration group/(Vt−V0) solvent control group]*100%. After the experiment, all animals were euthanized.

[4] = Pharmacokinetics in MiaPaca 2 tumor-bearing mice (plasma, tumor tissue); type: in vivo; settings: female, mouse, po; Plasma, p.o. 6 mg/kg
Experimental: The pharmacokinetic behavior of the compound of the embodiment 13-1 and AMG-510 compound, administered orally at a dose of 6 mg/kg, in mice (plasma, tumor tissue and intestine) was studied using MiaPaca 2 tumor-bearing mice as test animals.
24 MiaPaca 2 tumor-bearing mice, females. 3 for each time point (0 h, 1 h, 2 h, 4 h, 6 h, 8 h, 16 h, 24 h). Shanghai xipuer-bikai Laboratory Animal Co., Ltd, Animal Production License No. (SCXK (Shanghai) 2018-0006.
Embodiment compound 13-1 and compound AMG-510 were weighed and dissolved in the solution, the mixture was shaken well, and ultrasound was performed for 15 minutes to obtain a uniform suspension with a concentration of 0.6 mg/mL.
MiaPaca 2 tumor-bearing mice were administered at a dose of 6 mg/kg in a volume of 10 mL/kg, respectively, based on body weight p.o. after fasting (animals were not administered at point 0 h).
Before and after administration, mice were sacrificed with CO2, 0.5 mL blood was collected from the heart and placed in EDTA-2K tube, centrifuged at 4° C. […] The duodenum, ileum and colon tissues were cut with scissors, the contents were removed and cleaned twice with PBS, after absorbing water with absorbent paper, they were weighed, placed in a 2 mL centrifuge tube and stored at −80° C.

| Compound | Plasma protein binding rate, Dog [1] | IC50 [2] [nM] | Tumor volume (mm^3, Mean ± SD) Day 0 ([3]; Day 0) [mm^3] | TGI (%) Day 21 ([3]; Day 21) [%] | Tumor volume (mm^3, Mean ± SD) Day 21 ([3]; Day 21) [mm^3] | ΔT/ΔC (%) Day 21 ([3]; Day 21) [%] | MRT [4] [min] | half-life [4] [min] |
| --- | --- | --- | --- | --- | --- | --- | --- | --- |
| P-4-((2S,5R)-4-acryloyl-2,5-dimethylpiperazin-1-yl)-6-fluoro-7-(2-fluoro-6-hydroxyphenyl)-1-(2-isopropyl-4-(methylthio)pyridin-3-yl)pyrido[2,3-d]pyrimidin-2(1H)-one [Embodiment 2-1] | 82.6 | 38 | 177 ± 38 | 162.36 | 67 ± 34 | −62.36 | – | – |
| C=CC(=O)N1C[C@H](C)N(c2nc(=O)n(-c3c(SC)ccnc3C(C)C)c3nc(-c4c(N)ccc(Cl)c4F)c(Cl)cc23)C[C@H]1C (atropisomer, axis not shown) [Embodiment 13-1, P-4-((2S,5R)-4-Acryloyl-2,5-dimethylpiperazin-1-yl)-7-(6-amino-3-chloro-2-fluorophenyl)-6-chloro-1-(2-isopropyl-4-(methylthio)pyridin-3-yl)pyrido[2,3-d]pyrimidin-2(1H)-one] | – | – | – | – | – | – | 54 | 30 |
